# Patent US20080287430A1, “Furan Compounds Useful As Ep1 Receptor Antagonists” (priority 2005, published 2008)
# Molecular target: T1, human EP1 receptor (Homo sapiens, UniProt P34995)
# T1 construct: expressed in transfected cells; host or cells: CHO-K1
# T1 sequence (P34995 1-402): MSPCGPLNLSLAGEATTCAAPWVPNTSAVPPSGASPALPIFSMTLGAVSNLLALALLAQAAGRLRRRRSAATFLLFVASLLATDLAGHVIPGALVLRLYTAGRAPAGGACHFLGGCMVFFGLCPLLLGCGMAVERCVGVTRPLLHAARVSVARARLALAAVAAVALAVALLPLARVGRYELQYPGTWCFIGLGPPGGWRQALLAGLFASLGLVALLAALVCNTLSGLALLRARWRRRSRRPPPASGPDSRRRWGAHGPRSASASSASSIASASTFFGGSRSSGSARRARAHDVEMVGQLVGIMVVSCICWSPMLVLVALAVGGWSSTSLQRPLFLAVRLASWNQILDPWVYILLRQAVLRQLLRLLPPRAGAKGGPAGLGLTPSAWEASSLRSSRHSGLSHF
# Assay: human EP1 calcium mobilisation assay
# Assay type: cell-based
# Conditions: human EP1, PGE2-induced calcium mobilisation in CHO-K1 cells; free bases or sodium salts; averages of a number of experiments; read-out: functional pKi value (converted)
# Description: Briefly, the antagonist properties of compounds are assessed by their ability to inhibit the mobilisation of intracellular calcium ([Ca^2+]i) in response to activation of EP1 or EP3 receptors by the natural agonist hormone prostaglandin E2 (PGE2). Increasing concentrations of antagonist reduce the amount of calcium that a given concentration of PGE2 can mobilise. The net effect is to displace the PGE2 concentration-effect curve to higher concentrations of PGE2. The amount of calcium produced is assessed using a calcium-sensitive fluorescent dye such as Fluo-4, AM and a suitable instrument such as a Fluorimetric Imaging Plate Reader (FLIPR). Increasing amounts of [Ca^2+]i produced by receptor activation increase the amount of fluorescence produced by the dye and give rise to an increasing signal. The signal may be detected using the FLIPR instrument and the data generated may be analysed with suitable curve-fitting software.
# The human EP1 or EP3 calcium mobilisation assay (hereafter referred to as ‘the calcium assay’) utilises Chinese hamster ovary-K1(CHO-K1) cells into which a stable (pCIN; BioTechniques 20 (1996): 102-110) vector containing either EP1 or EP3 cDNA has previously been transfected. Cells are cultured in suitable flasks containing culture medium such as DMEM:F-12 supplemented with 10% v/v foetal calf serum, 2 mM L-glutamine, 0.25 mg/ml geneticin, 100 μM flurbiprofen and 10 μg/ml puromycin.
# For assay, cells are harvested using a proprietary reagent that dislodges cells such as Versene. Cells are re-suspended in a suitable quantity of fresh culture media for introduction into a 384-well plate. Following incubation for 24 hours at 37° C. the culture media is replaced with a medium containing Fluo-4 and the detergent pluronic acid, and a further incubation takes place. Concentrations of compounds are then added to the plate in order to construct concentration-effect curves. This may be performed on the FLIPR in order to assess the agonist properties of the compounds. Concentrations of PGE2 are then added to the plate in order to assess the antagonist properties of the compounds.
# The data so generated may be analysed by means of a computerised curve-fitting routine. The concentration of compound that elicits a half-maximal inhibition of the calcium mobilisation induced by PGE2 (pIC50) may then be estimated.
row,Structure (SMILES),Ki [nM]
1,"CC(C)COc1ccc(Cl)cc1Cc1ccc(C(=O)Nc2ccccc2)o1 [Example 34, 5-({5-Chloro-2-[(2-methylpropyl)oxy]phenyl}methyl)-N-phenyl-2-furancarboxamide]",< 1000
2,CC(C)COc1ccc(Cl)cc1Cc1ccc(C(=O)NCc2ccc(F)cc2)o1 [Example 37],< 1000
3,"CC(C)COc1ccc(Cl)cc1Cc1ccc(C(=O)NCc2ccc(C(F)(F)F)cc2)o1 [Example 38, 5-({5-Chloro-2-[(2-methylpropyl)oxy]phenyl}methyl)-N-{[4-(trifluoromethyl)phenyl]methyl}-2-furancarboxamide]",< 1000
4,"CC(C)COc1ccc(Cl)cc1Cc1ccc(C(=O)NCc2ccc3c(c2)OCO3)o1 [Example 39, N-(1,3-Benzodioxol-5-ylmethyl)-5-({5-chloro-2-[(2-methylpropyl)oxy]phenyl}methyl)-2-furancarboxamide]",< 1000
5,"COc1ccc(CNC(=O)c2ccc(Cc3cc(Cl)ccc3OCC(C)C)o2)cc1 [Example 40, 5-({5-Chloro-2-[(2-methylpropyl)oxy]phenyl}methyl)-N-{[4-(methyloxy)phenyl]methyl}-2-furancarboxamide]",< 1000
6,"CC(C)COc1ccc(Cl)cc1Cc1ccc(C(=O)NCc2ccc(Cl)cc2)o1 [Example 41, 5-({5-Chloro-2-[(2-methylpropyl)oxy]phenyl}methyl)-N-[(4-chlorophenyl)methyl]-2-furancarboxamide]",< 1000
7,"CC(C)COc1ccc(Cl)cc1Cc1ccc(C(=O)NCc2ccc(C#N)cc2)o1 [Example 42, 5-({5-Chloro-2-[(2-methylpropyl)oxy]phenyl}methyl)-N-[(4-cyanophenyl)methyl]-2-furancarboxamide]",< 1000
8,"CC(C)COc1ccc(Cl)cc1Cc1ccc(C(=O)NCc2c(F)cccc2F)o1 [Example 43, 5-({5-Chloro-2-[(2-methylpropyl)oxy]phenyl}methyl)-N-[(2,6-difluorophenyl)methyl]-2-furancarboxamide]",< 1000
9,"CC(C)COc1ccc(Cl)cc1Cc1ccc(C(=O)NCc2cccc(F)c2F)o1 [Example 44, 5-({5-Chloro-2-[(2-methylpropyl)oxy]phenyl}methyl)-N-[(2,3-difluorophenyl)methyl]-2-furancarboxamide]",< 1000
10,"CC(C)COc1ccc(Cl)cc1Cc1ccc(C(=O)NCc2ccc(-c3cccnc3)cc2)o1 [Example 45, 5-({5-Chloro-2-[(2-methylpropyl)oxy]phenyl}methyl)-N-{[4-(3-pyridinyl)phenyl]methyl}-2-furancarboxamide]",< 1000
11,"CC(C)COc1ccc(Cl)cc1Cc1ccc(C(=O)NCc2ccc(C(N)=O)cc2)o1 [Example 46, N-{[4-(Aminocarbonyl)-phenyl]methyl}-5-({5-chloro-2-[(2-methylpropyl)oxy]phenyl}methyl)-2-furancarboxamide]",< 1000
12,"CC(C)COc1ccc(Cl)cc1Cc1ccc(C(=O)NCc2cccc3ccccc23)o1 [Example 47, 5-({5-Chloro-2-[(2-methylpropyl)oxy]phenyl}methyl)-N-(1-naphthalenylmethyl)-2-furancarboxamide]",< 1000
13,"O=C(NCc1ccccc1)c1ccc(Cc2cc(Cl)ccc2OCc2ccccc2)o1 [Example 48, 5-({5-Chloro-2-[(phenylmethyl)oxy]phenyl}methyl)-N-(phenylmethyl)-2-furancarboxamide]",< 1000
14,"CC(C)NC(=O)c1ccc(Cc2cc(Cl)ccc2OCc2ccccc2)o1 [Example 49, 5-({5-Chloro-2-[(phenylmethyl)oxy]phenyl}methyl)-N-(1-methylethyl)-2-furancarboxamide]",< 1000
15,"CC(C)CNC(=O)c1ccc(Cc2cc(Cl)ccc2OCc2ccccc2)o1 [Example 50, 5-({5-Chloro-2-[(phenylmethyl)oxy]phenyl}methyl)-N-(2-methylpropyl)-2-furancarboxamide]",< 1000
16,"CC(C)(C)NC(=O)c1ccc(Cc2cc(Cl)ccc2OCc2ccccc2)o1 [Example 51, 5-({5-Chloro-2-[(phenylmethyl)oxy]phenyl}methyl)-N-(1,1-dimethylethyl)-2-furancarboxamide]",< 1000
17,"CC(C)(C)CNC(=O)c1ccc(Cc2cc(Cl)ccc2OCc2ccccc2)o1 [Example 52, 5-({5-Chloro-2-[(phenylmethyl)oxy]phenyl}methyl)-N-(2,2-dimethylpropyl)-2-furancarboxamide]",< 1000
18,"O=C(NCc1ccccn1)c1ccc(Cc2cc(Cl)ccc2OCc2ccccc2)o1 [Example 53, 5-({5-Chloro-2-[(phenylmethyl)oxy]phenyl}methyl)-N-(2-pyridinylmethyl)-2-furancarboxamide]",≤ 10
19,"CN(C)c1ccc(CNC(=O)c2ccc(Cc3cc(Cl)ccc3OCc3ccccc3)o2)cc1 [Example 54, 5-({5-Chloro-2-[(phenylmethyl)oxy]phenyl}methyl)-N-{[4-(dimethylamino)phenyl]methyl}-2-furancarboxamide]",< 1000
20,"CC(C)COc1ccc(Cl)cc1Cc1ccc(C(=O)NC(C)C)o1 [Example 55, 5-({5-Chloro-2-[(2-methylpropyl)oxy]phenyl}methyl)-N-(1-methylethyl)-2-furancarboxamide]",< 1000
21,"CC(C)COc1ccc(Cl)cc1Cc1ccc(C(=O)NC(C)(C)C)o1 [Example 56, 5-({5-Chloro-2-[(2-methylpropyl)oxy]-phenyl}methyl)-N-(1,1-dimethylethyl)-2-furancarboxamide]",< 1000
22,"CC(C)COc1ccc(Cl)cc1Cc1ccc(C(=O)NCc2ccccn2)o1 [Example 58, 5-({5-Chloro-2-[(2-methylpropyl)oxy]-phenyl}methyl)-N-(2-pyridinylmethyl)-2-furancarboxamide]",< 1000
23,"CC(C)COc1ccc(Cl)cc1Cc1ccc(C(=O)n2cnc3ccccc32)o1 [Example 67, 1-{[5-({5-Chloro-2-[(2-methylpropyl)oxy]-phenyl}methyl)-2-furanyl]carbonyl}-1H-benzimidazole]",< 1000
24,"CC(C)COc1ccc(Cl)cc1Cc1ccc(C(N)=O)o1 [Example 68, 5-({5-Chloro-2-[(2-methylpropyl)oxy]-phenyl}methyl)-2-furancarboxamide]",< 1000
25,"O=C(Nc1ccccc1F)c1ccc(Cc2cc(Cl)ccc2OCc2ccccc2)o1 [Example 69, 5-({5-Chloro-2-[(phenylmethyl)oxy]-phenyl}methyl)-N-(2-fluorophenyl)-2-furancarboxamide]",< 1000
26,"O=C(Nc1ccccc1)c1ccc(Cc2cc(Cl)ccc2OCc2ccccc2)o1 [Example 70, 5-({5-Chloro-2-[(phenylmethyl)oxy]-phenyl}methyl)-N-phenyl-2-furancarboxamide]",< 1000
27,"Cc1cccc(C)c1NC(=O)c1ccc(Cc2cc(Cl)ccc2OCc2ccccc2)o1 [Example 71, 5-({5-Chloro-2-[(phenylmethyl)oxy]-phenyl}methyl)-N-(2,6-dimethylphenyl)-2-furancarboxamide]",< 1000
28,"O=C(Nc1ccccc1Cl)c1ccc(Cc2cc(Cl)ccc2OCc2ccccc2)o1 [Example 72, N-(2-chlorophenyl)-5-({5-chloro-2-[(phenylmethyl)oxy]-phenyl}methyl)-2-furancarboxamide]",< 1000
29,"Cc1ccccc1NC(=O)c1ccc(Cc2cc(Cl)ccc2OCc2ccccc2)o1 [Example 73, 5-({5-Chloro-2-[(phenylmethyl)oxy]-phenyl}methyl)-N-(2-methylphenyl)-2-furancarboxamide]",< 1000
